# Experimental data taken from patent US10640495B2, “Heterocycle derivatives having TrkA inhibitory activity” (Shionogi & Co., Ltd., priority 2015, dated 2020).
# pIC50: −log10 of the molar value.
# Molecular target: human TrkA (Homo sapiens (Human), UniProt P04629)
# Test: Human TrkA inhibition assay (Test Example 2)
# Format: biochemical
# Details: Table 154, human TrkA inhibition; read-out: IC50
# Summary of the method: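 Mobility-shift readout of phosphorylated versus unphosphorylated fluorescent peptide gave conversion ratio, normalized to DMSO and no-enzyme wells; IC50 by logistic fit of 10- or 15-point 3-fold dilutions. Conditions: 1 nmol/L enzyme, 15 min compound preincubation, then 500 μmol/L ATP plus 1.5 μmol/L peptide, 120 min, 37 °C.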
# Sequence of human TrkA (P04629 440-796): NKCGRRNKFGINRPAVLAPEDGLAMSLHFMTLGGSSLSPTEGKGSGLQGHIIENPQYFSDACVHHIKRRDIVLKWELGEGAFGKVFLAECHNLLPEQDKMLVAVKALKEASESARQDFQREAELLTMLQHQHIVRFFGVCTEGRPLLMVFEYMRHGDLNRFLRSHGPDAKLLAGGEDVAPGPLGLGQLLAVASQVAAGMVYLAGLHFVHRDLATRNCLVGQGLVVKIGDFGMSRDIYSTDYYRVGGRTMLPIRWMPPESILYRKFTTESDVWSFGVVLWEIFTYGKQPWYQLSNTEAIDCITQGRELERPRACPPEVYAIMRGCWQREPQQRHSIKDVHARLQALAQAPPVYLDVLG
row,pIC50,SMILES
1,> 7.00,COCCN1C[C@@H](NC(=O)Nc2c(C)c(-c3cnc(OC)c(C(=O)N[C@@H]4CCOC4)c3)nn2-c2ccccc2)[C@H](c2ccnc(F)c2)O1 [Compound I-192]
2,> 7.00,COCCN1C[C@@H](NC(=O)Nc2c(C)c(-c3ccnc(C(=O)OC)c3)nn2-c2ccccc2)[C@H](c2cnc(F)c(F)c2)O1 [Compound I-197]
3,> 7.00,COCCN1C[C@@H](NC(=O)Nc2c(C)c(-c3cnc(N4CC(O)C4)nc3)nn2-c2ccccc2)[C@H](c2ccc(F)c(F)c2)O1 [Compound I-209]
4,> 7.00,COCCN1C[C@@H](NC(=O)Nc2c(C)c(-c3cnc(N4CC(O)C4)nc3)nn2-c2ccccc2)[C@H](c2cnc(F)c(F)c2)O1 [Compound I-210]
5,> 7.00,COCCN1C[C@@H](NC(=O)Nc2c(C)c(-c3ccnc(C(=O)O)c3)nn2-c2ccccc2)[C@H](c2cnc(F)c(F)c2)O1 [Compound I-213]
6,> 7.00,COCCN1C[C@@H](NC(=O)Nc2c(C)c(-c3cnc4c(c3)c(=O)n(C)n4C)nn2-c2ccccc2)[C@H](c2ccc(F)c(F)c2)O1 [Compound I-216]
7,> 7.00,COCCN1C[C@@H](NC(=O)Nc2c(C)c(-c3cnc4c(c3)[nH]c(=O)n4C)nn2-c2ccccc2)[C@H](c2ccc(F)c(F)c2)O1 [Compound I-218]
8,> 7.00,COCCN1C[C@@H](NC(=O)Nc2c(C)c(-c3cnc4c(c3)nc(C(N)=O)n4C)nn2-c2ccccc2)[C@H](c2ccc(F)c(F)c2)O1 [Compound I-221]
9,> 7.00,COCCN1C[C@@H](NC(=O)Nc2c(C)c(-c3cnc4c(c3)nc(C#N)n4C)nn2-c2ccccc2)[C@H](c2ccc(F)c(F)c2)O1 [Compound I-222]
10,> 7.00,COCCN1C[C@@H](NC(=O)Nc2c(C)c(-c3ccc(N=S(C)(C)=O)cc3)nn2-c2ccccc2)[C@H](c2ccc(F)c(F)c2)O1 [Compound I-227]
11,> 7.00,COCCN1C[C@@H](NC(=O)Nc2c(C)c(-c3cnc4c(ccc(=O)n4C)c3)nn2-c2ccccc2)[C@H](c2ccc(F)c(F)c2)O1 [Compound I-229]
12,> 7.00,COCCN1C[C@@H](NC(=O)Nc2c(C)c(-c3ccnc(C(=O)NO)c3)nn2-c2ccccc2)[C@H](c2cnc(F)c(F)c2)O1 [Compound I-231]
13,> 7.00,COCC[C@@H]1C[C@@H](NC(=O)Nc2c(C)c(-c3cnn(C)c3)nn2-c2ccccc2)[C@H](c2ccnc(F)c2)O1 [Compound I-235]
14,> 7.00,COCC[C@@H]1C[C@@H](NC(=O)Nc2c(C)c(-c3cnc(Cl)nc3)nn2-c2ccccc2)[C@H](c2ccnc(F)c2)O1 [Compound I-248]
15,> 7.00,COCC[C@@H]1C[C@@H](NC(=O)Nc2c(C)c(-c3cc(C(=O)OC)c(=O)n(C)c3)nn2-c2ccccc2)[C@H](c2ccnc(F)c2)O1 [Compound I-251]
16,> 7.00,COCCN1C[C@@H](NC(=O)Nc2c(C)c(-c3cnc(C(N)=O)c(C)c3)nn2-c2ccccc2)[C@H](c2cnc(F)c(F)c2)O1 [Compound I-252]
17,> 7.00,COCCN1C[C@@H](NC(=O)Nc2c(C)c(-c3cnc(C(=O)NC4CC4)c(C)c3)nn2-c2ccccc2)[C@H](c2cnc(F)c(F)c2)O1 [Compound I-254]

row,pIC50,SMILES
1,6.00 to 7.00,COCCN1C[C@H](NC(=O)Nc2c(C)c(-c3cnc(OC)nc3)nn2-c2ccccc2)[C@@H](c2cnc(F)c(F)c2)O1 [Compound I-263]
2,> 7.00,CNC(=O)c1cc(-c2nn(-c3ccccc3)c(NC(=O)N[C@@H]3C[C@@H](CCOC)O[C@H]3c3ccnc(F)c3)c2C)cn(C)c1=O [Compound I-271]
3,> 7.00,COCC[C@@H]1C[C@@H](NC(=O)Nc2c(C)c(-c3cc(C(=O)NC4CCOCC4)c(=O)n(C)c3)nn2-c2ccccc2)[C@H](c2ccnc(F)c2)O1 [Compound I-272]
4,> 7.00,COCC[C@@H]1C[C@@H](NC(=O)Nc2c(C)c(-c3cnc4c(c3)c(C)nn4C)nn2-c2ccccc2)[C@H](c2ccnc(F)c2)O1 [Compound I-274]
5,> 7.00,COCC[C@@H]1C[C@@H](NC(=O)Nc2c(C)c(-c3cnc4c(c3)ncn4C)nn2-c2ccccc2)[C@H](c2ccnc(F)c2)O1 [Compound I-276]
6,> 7.00,COCCN1C[C@@H](NC(=O)Nc2c(C)c(-c3cc(-c4cn(Cc5ccc(OC)cc5)nn4)c(=O)n(C)c3)nn2-c2ccccc2)[C@H](c2ccc(F)c(F)c2)O1 [Compound I-277]
7,> 7.00,COCC[C@@H]1C[C@@H](NC(=O)Nc2c(C)c(-c3cc(C)c(=O)n(C)c3)nn2-c2ccccc2)[C@H](c2ccnc(F)c2)O1 [Compound I-288]
8,> 7.00,COCC[C@@H]1C[C@@H](NC(=O)Nc2c(C)c(-c3cnc(N(C)C(=O)OC(C)(C)C)nc3)nn2-c2ccccc2)[C@H](c2ccnc(F)c2)O1 [Compound I-289]
9,> 7.00,COCC[C@@H]1C[C@@H](NC(=O)Nc2c(C)c(-c3cnc(N(C(=O)OC(C)(C)C)C4CC4)nc3)nn2-c2ccccc2)[C@H](c2ccnc(F)c2)O1 [Compound I-290]
10,> 7.00,CNc1ncc(-c2nn(-c3ccccc3)c(NC(=O)N[C@@H]3C[C@@H](CCOC)O[C@H]3c3ccnc(F)c3)c2C)cn1 [Compound I-292]
11,> 7.00,COCC[C@@H]1C[C@@H](NC(=O)Nc2c(C)c(-c3cnc(NC4CC4)nc3)nn2-c2ccccc2)[C@H](c2ccnc(F)c2)O1 [Compound I-293]
12,> 7.00,COCCC1C[C@@H](NC(=O)Nc2c(C)c(-c3cnc(COC(=O)C(C)(C)C)nc3)nn2-c2ccccc2)[C@H](c2ccccc2)O1 (stereo partly drawn) [Compound I-294]
13,6.00 to 7.00,COCCC1C[C@@H](NC(=O)Nc2c(C)c(OCC(C)(C)O)nn2-c2ccccc2)[C@H](c2ccccc2)O1 (stereo partly drawn) [Compound I-295]
14,> 7.00,COCCC1C[C@@H](NC(=O)Nc2c(C)c(-c3cnc(CO)nc3)nn2-c2ccccc2)[C@H](c2ccccc2)O1 (stereo partly drawn) [Compound I-296]
15,> 7.00,COCCN1C[C@@H](NC(=O)Nc2c(C)c(-c3ccc4nc(C(N)=O)cn4c3)nn2-c2ccccc2)[C@H](c2ccc(F)c(F)c2)O1 [Compound I-310]
16,> 7.00,COCCN1C[C@@H](NC(=O)Nc2c(C)c(-c3cnc(C(N)=O)c(F)c3)nn2-c2ccccc2)[C@H](c2ccc(F)c(F)c2)O1 [Compound I-312]
17,> 7.00,CNC(=O)c1ncc(-c2nn(-c3ccccc3)c(NC(=O)N[C@@H]3CN(CCOC)O[C@H]3c3ccc(F)c(F)c3)c2C)cc1F [Compound I-314]

# Same assay, conditions: Table 155, human TrkA inhibition; read-out: IC50
row,pIC50,SMILES
1,> 7.00,COCC[C@@H]1C[C@@H](NC(=O)Nc2c(C)c(-c3cnc4c(c3)c(=O)n(C)n4C)nn2-c2ccccc2)[C@H](c2ccnc(F)c2)O1 [Compound I-330]
2,> 7.00,COCCN1C[C@@H](NC(=O)Nc2c(C)c(-c3cccc(CN=S(C)(C)=O)c3)nn2-c2ccccc2)[C@H](c2ccc(F)c(F)c2)O1 [Compound I-333]
3,> 7.00,COCCN1C[C@@H](NC(=O)Nc2c(C)c(-c3ccc(N=S(C)(C)=O)nc3)nn2-c2ccccc2)[C@H](c2ccc(F)cc2)O1 [Compound I-334]
4,> 7.00,COCCN1C[C@@H](NC(=O)Nc2c(C)c(-c3cnc4c(c3)nnn4C)nn2-c2ccccc2)[C@H](c2ccnc(F)c2)O1 [Compound I-342]

# Same assay, conditions: human TrkA 1 nmol/L, ATP 500 μmol/L, 120 min at 37° C.; read-out: IC50 values (TrkA phosphorylation inhibition)
row,pIC50,SMILES
1,8.82,COCCN1C[C@@H](NC(=O)Nc2c(C)c(-c3cnc(OC)nc3)nn2-c2ccccc2)[C@H](c2cnc(F)c(F)c2)O1 [Compound I-211]
2,8.82,COCCN1C[C@@H](NC(=O)Nc2c(C)c(-c3ccnc(C(=O)NOC)c3)nn2-c2ccccc2)[C@H](c2cnc(F)c(F)c2)O1 [Compound I-233]
3,8.85,COCC[C@@H]1C[C@@H](NC(=O)Nc2c(C)c(-c3cnc4c(cnn4C)c3)nn2-c2ccccc2)[C@H](c2ccnc(F)c2)O1 [Compound I-236]
4,8.09,COCC[C@@H]1C[C@@H](NC(=O)Nc2c(C)c(-c3cnc(C)nc3)nn2-c2ccccc2)[C@H](c2ccnc(F)c2)O1 [Compound I-237]
5,8.52,COCCN1C[C@@H](NC(=O)Nc2c(C)c(-c3cnn(C)c3)nn2-c2ccccc2)[C@H](c2cnc(F)c(F)c2)O1 [Compound I-245]
6,8.89,CNC(=O)c1ncc(-c2nn(-c3ccccc3)c(NC(=O)N[C@@H]3CN(CCOC)O[C@H]3c3cnc(F)c(F)c3)c2C)cc1C [Compound I-253]
7,9.32,COCCN1C[C@@H](NC(=O)Nc2c(C)c(-c3cnc4c(c3)[nH]c(=O)n4C)nn2-c2ccccc2)[C@H](c2cnc(F)c(F)c2)O1 [Compound I-258]
8,9.26,COCCN1C[C@@H](NC(=O)Nc2c(C)c(-c3cnc(N=S(C)(C)=O)nc3)nn2-c2ccccc2)[C@H](c2ccc(F)c(F)c2)O1 [Compound I-268]
9,8.33,COCC[C@@H]1C[C@@H](NC(=O)Nc2c(C)c(-c3cnc(OC)nc3)nn2-c2ccccc2)[C@H](c2ccnc(F)c2)O1 [Compound I-273]
10,9.22,COCCN1C[C@@H](NC(=O)Nc2c(C)c(-c3cnc4c(c3)c(N=S(C)(C)=O)nn4C)nn2-c2ccccc2)[C@H](c2ccc(F)c(F)c2)O1 [Compound I-298]
11,9.12,CNC(=O)c1ncc(-c2nn(-c3ccccc3)c(NC(=O)N[C@@H]3CN(CCOC)O[C@H]3c3ccc(F)c(F)c3)c2C)cc1NC [Compound I-315]
12,8.92,CNC(=O)c1cc(-c2nn(-c3ccccc3)c(NC(=O)N[C@@H]3C[C@@H](CCOC)O[C@H]3c3ccnc(F)c3)c2C)cnc1OC [Compound I-319]
13,8.62,COCCN1C[C@@H](NC(=O)Nc2c(C)c(-c3cnc(OC)nc3)nn2-c2ccccc2)[C@H](c2ccnc(F)c2)O1 [Compound I-322]
14,8.60,CNC(=O)c1ncc(-c2nn(-c3ccccc3)c(NC(=O)N[C@@H]3CN(CCOC)O[C@H]3c3ccnc(F)c3)c2C)cc1C [Compound I-325]
15,8.77,COCC[C@@H]1C[C@@H](NC(=O)Nc2c(C)c(-c3cnc4c(c3)CC(=O)N4C)nn2-c2ccccc2)[C@H](c2ccnc(F)c2)O1 [Compound I-329]
16,8.92,COCCN1C[C@@H](NC(=O)Nc2c(C)c(-c3ccc(CN=S(C)(C)=O)cc3)nn2-c2ccccc2)[C@H](c2ccc(F)c(F)c2)O1 [Compound I-332]
